Data as given in patent US11071747B2, “Use of NAD precursors for breast enhancement” (UNIVERSITY OF IOWA RESEARCH FOUNDATION, priority 2016, dated 2021).
“Also recorded” adds a separate entry of the source.

Key:
[1] = system: mammary glands of lactating mice; experiment: NR-supplemented diet in lactating female mice, mammary gland mass and Carmine/Alum staining; assay type: in vivo, C57BL/6N mice
Source text: FIGS. 1A-B. NR increases the mass of mammary glands of lactating mice. C57BL/6 female mice were fed normal chow (NC) diet and mated to a C57BL/6 male. After gestation and birth, females remained on NC or were on or a diet supplemented with 3 g/kg nicotinamide riboside chloride (NR). At day 14, the females were sacrificed and mammary glands 1-5 were removed for analysis. FIG. 1A. […] FIG. 1B. Mammary glands 4 and 5 isolated from lactating females were stained with Carmine/Alum staining.
The data are based on a trial with female C57BL/6N mice raised in 12 hour light:dark cycles on Teklad 2920X chow (NC). It was asked whether addition of NR chloride (3 g/kg of chow) to the diet of female mice would augment mammary tissue. Accordingly, for 12 weeks prior to mating with a single C57BL/6N male, females were on either NC (n=4) or NC+NR (n=4). Females were maintained on the same diet for 14 days post-partum.

[2] = system: mammary glands of virgin female mice; experiment: NR oral supplementation in virgin female mice, mammary gland development; assay type: in vivo
Source text: FIGS. 2A-E. NR oral supplementation promotes mammary gland development in virgin female mice (non-lactating females). FIG. 2A. […] FIG. 2B. Carmine/Alum staining of mammary glands. FIG. 2C. Quantification of mammary gland ductal length can be assessed by taking the measurement of the left (L1), right (L2), top (L3) and bottom (L4) branchings expressed in cm. FIG. 2D. […] FIG. 2E.

[3] = system: mammary gland #4-5 and brown adipose tissue of female rats; experiment: NR diet in virgin female rats, mammary gland and brown adipose tissue weight; assay type: in vivo; conditions: NR diet vs normal chow
Protocol: FIGS. 3A-C. […] Adipose tissues of female rats on normal chow diet (NC) or normal chow with nicotinamide riboside (NR). FIG. 3A. Mammary gland #4-5 were isolated and the weight was recorded. […] FIG. 3B. Images of dissected mammary gland #4-5. FIG. 3C. Weight of brown adipose tissue (BAT). To determine if the effect of NR on females was a mouse-specific phenomenon, additional experiments were performed. Specifically, virgin female rats were fed either NC or NR diets prior to dissection.

[4] = system: mammary glands #4 and 5; experiment: NR diet for six weeks in eight month-old female and male mice, mammary gland weight; assay type: in vivo; conditions: NR diet six weeks vs NC
Protocol: FIG. 4. NR increases mammary gland tissue weight of female but not male mice. Eight month-old mice were put on NC or NR diet for six weeks. Mammary glands #4 and 5 were measured and plotted by normalizing to the body weight of each mouse. […] In FIG. 4, eight month-old mice were put on normal chow (NC) or NC+NR (NR) diets for six weeks. Mammary glands #4 and 5 were measured and plotted by normalizing to the body weight of each mouse.

[5] = system: mammary glands #4-5 of female mice; experiment: Xylene extraction of fat from stained mammary glands of NR-fed female mice; assay type: in vivo; conditions: eight month-old female mice, NR diet six weeks
Source text: FIGS. 5A-B. NR-supplemented mammary tissue is partially resistant to xylene extraction. FIG. 5A. […] Eight month-old female mice were on NC or NR diet for six weeks. Mammary glands #4-5 were isolated, fixed, stained with Carmine/Alum stain and xylene was use to extract fat. […] FIG. 5B. NR-fed rats have mammary gland with a different fat composition. […] Eight month-old female mice were on NC or NR diet for six weeks. Mammary glands #4-5 were isolated, fixed, stained with Carmine/Alum stain and subjected to an extraction with xylene to remove fat.

[6] = system: mammary gland of rats; experiment: Xylene clearing of mammary adipose tissue of NR-fed rats; assay type: in vivo
Source text: FIGS. 5A-B. NR-supplemented mammary tissue is partially resistant to xylene extraction. FIG. 5A. […] Eight month-old female mice were on NC or NR diet for six weeks. Mammary glands #4-5 were isolated, fixed, stained with Carmine/Alum stain and xylene was use to extract fat. […] FIG. 5B. NR-fed rats have mammary gland with a different fat composition.

[7] = system: mammary glands of female rodents; experiment: NR-supplemented diet in adult female rodents, overall findings; assay type: in vivo, mice and rats
Protocol: As described herein, a series of experiments were performed to examine the effect of nicotinamide riboside (NR) on mammary tissue. It was determined that the provision of NR in the diet of female mice and female rats promoted mammary development (e.g., increases mammary gland tissue weight). […] These experiments show the unanticipated and potentially value effect of supplementing females with NR or other NAD precursors.

In the case of `NC(=O)c1ccc[n+]([C@@H]2O[C@H](CO)[C@@H](O)[C@H]2O)c1` [NR, nicotinamide riboside], the “mass of mammary glands” value ([1]; lactating C57BL/6 females, diet with 3 g/kg NR chloride vs normal chow, day 14 post-partum, mammary glands 1-5) is reported as “more mammary tissue than those on normal chow; also recorded: more massive mammary glands”, the “lactating mammary tissue (Carmine/Alum staining)” value ([1]; lactating females, mammary glands 4 and 5, NR diet vs normal chow) is reported as “more lactating mammary tissue” and the “mammary gland with beige fat” value ([2]; twelve week-old virgin female mice, NR supplementation for two weeks) is reported as “more mammary gland with beige fat”. The “surface area of mammary gland #4-5” value ([2]; virgin female mice, NR oral supplementation) was “increases the surface area of mammary gland #4-5”, the “mammary gland ductal length measurements” value ([2]; virgin female mice, NR oral supplementation, L1-L4 branchings) was “increases ductal length measurements” and the “subcutaneous adipose tissue and epithelial duct branching” value ([2]; virgin mice, not exposed to males) was “significant increase of the subcutaneous adipose tissue and epithelial duct branching”. The “weight of brown adipose tissue (BAT)” value ([3]; female rats) was “increases the mass of mammary gland #4 and #5 and brown adipose tissue (BAT)”, the “weight of mammary gland #4-5” value ([3]; virgin female rats) was “increased the size of mammary tissues in rats; also recorded: more mammary gland tissue” and the “mammary gland #4 and 5 weight normalized to body weight” value ([4]; eight month-old female mice) was “more mammary gland tissue in comparison to the NC group”. For the same molecule, the “mammary gland #4 and 5 weight normalized to body weight” value ([4]; eight month-old male mice) was “no significant increase in mammary tissue weight”, the “fat composition of the mammary gland” value [5] was “changes the fat composition of the mammary gland” and the “fat remaining in mammary glands after xylene extraction” value ([5]; 1 week of incubation in xylene) was “more fat remaining”. The “clearing of mammary adipose tissue by xylene” value [6] was “poorly cleared by xylene”, the “development of beige or brown fat” value ([7]; NR supplementation, female rodents) was “leads to development of beige or brown fat” and the “fat pad formation, epithelial branching, alveolar and lobule development of mammary glands” value ([7]; adult females, virginal or pregnant, diet supplemented with NR) was “increase in fat pad formation, epithelial branching, alveolar and lobule development”.
